Like-named read-outs stand apart in the source and are kept apart here.

The subject of this experiment is RPE-Neo or RPE-MYC or RPE-MYC expressing an EGFP-Histone 2B fusion protein. Description: Phenotypic screening assay (arrest in mitosis, change in DNA content, cell death; GE IN-Cell Analyzer 2000). In kind it is cell-based. Particulars: Homo sapiens, compounds 20 nM to 20 μM, 24, 48 or 72 hours.
[1] abbreviates: read-out: Min. Effective conc. for Polyploidy (≥10%).
Where [2] appears, read: min. effective conc., read-out: Cell Death (>30%).
Where [3] appears, read: min. effective conc., read-out: Mitotic Arrest (≥10%).

As for `COC(=O)C1=C(O)c2ccccc2N(Cc2ccc(OC)cc2)C(=O)C1` [Example 34, Methyl 5-hydroxy-1-(4-methoxybenzyl)-2-oxo-2,3-dihydro-1H-benzo[b]azepine-4-carboxylate], the minimal effective concentration is, setting by setting: under setting [1], 0.001 to 1 µM; under setting [2], 0.001 to 1 µM; under setting [3], 0.001 to 1 µM.

On to `CCC(=O)C1=C(O)c2ccccc2N(Cc2ccc(C)c(F)c2)C(=O)C1` [Example 55, 1-(3-fluoro-4-methylbenzyl)-5-hydroxy-4-propionyl-1,3-dihydro-2H-benzo[b]azepin-2-one], for which the minimal effective concentration reads like this: under setting [1], 0.001 to 1 µM; under setting [3], 0.001 to 1 µM.

`CCCc1ccc(CN2C(=O)CC(C(=O)OC)=C(O)c3ccccc32)cc1` [Example 49, Methyl 5-hydroxy-2-oxo-1-(4-propylbenzyl)-2,3-dihydro-1H-benzo[b]azepine-4-carboxylate]: the minimal effective concentration was in the range of 10 to 30 µM under setting [1], 10 to 30 µM under setting [2] and 10 to 30 µM under setting [3].

Take `COC(=O)C1=C(O)c2ccccc2N(Cc2ccc(C)cc2C)C(=O)C1` [Example 29, Methyl 1-(2,4-dimethylbenzyl)-5-hydroxy-2-oxo-2,3-dihydro-1H-benzo[b]azepine-4-carboxylate]: the minimal effective concentration under setting [1] was 1 to 10 µM, the minimal effective concentration under setting [2] was 1 to 10 µM and the minimal effective concentration under setting [3] lay in the range of 1 to 10 µM.

With `CCCCc1ccc(CN2C(=O)CC(C(=O)OC)=C(O)c3ccccc32)cc1` [Example 50, Methyl 1-(4-butylbenzyl)-5-hydroxy-2-oxo-2,3-dihydro-1H-benzo[b]azepine-4-carboxylate], the minimal effective concentration is, setting by setting: under setting [1], 10 to 30 µM; under setting [2], 10 to 30 µM; under setting [3], 10 to 30 µM.

In the case of `COC(=O)C1=C(O)c2ccccc2N(Cc2ccc(OC)c(F)c2)C(=O)C1` [Example 48, Methyl 1-(3-fluoro-4-methoxybenzyl)-5-hydroxy-2-oxo-2,3-dihydro-1H-benzo[b]azepine-4-carboxylate], the minimal effective concentration under setting [1] was 0.001 to 1 µM, the minimal effective concentration under setting [2] is 0.001 to 1 µM and the minimal effective concentration under setting [3] was 0.001 to 1 µM.

Regarding `COC(=O)C1=C(O)c2ccccc2N(Cc2cnc3ccccc3c2)C(=O)C1` [Example 12, Methyl 5-hydroxy-2-oxo-1-(quinolin-3-ylmethyl)-2,3-dihydro-1H-benzo[b]azepine-4-carboxylate], the minimal effective concentration under setting [2] was in the range of 30 to 1000 µM.

For `Cc1ccc(CN2C(=O)CC(C(=O)C(C)(C)C)=C(O)c3ccccc32)cc1F` [Example 60, 1-(3-fluoro-4-methylbenzyl)-5-hydroxy-4-pivaloyl-1,3-dihydro-2H-benzo[b]azepin-2-one], the minimal effective concentration is, setting by setting: under setting [1], 1 to 10 µM; under setting [2], 1 to 10 µM; under setting [3], 1 to 10 µM.

With `CCCC(=O)C1=C(O)c2ccccc2N(Cc2ccc(C)c(F)c2)C(=O)C1` [Example 57, 4-butyryl-1-(3-fluoro-4-methylbenzyl)-5-hydroxy-1,3-dihydro-2H-benzo[b]azepin-2-one], the minimal effective concentration fell in the range of 1 to 10 µM under setting [1], 1 to 10 µM under setting [2] and 0.001 to 1 µM under setting [3].

With `Cc1ccc(CN2C(=O)CC(C(=O)C(F)(F)F)=C(O)c3ccccc32)cc1F` [Example 68, 1-(3-fluoro-4-methylbenzyl)-5-hydroxy-4-(2,2,2-trifluoroacetyl)-1,3-dihydro-2H-benzo[b]azepin-2-one], the minimal effective concentration lay within 10 to 30 µM under setting [1], 10 to 30 µM under setting [2] and 10 to 30 µM under setting [3].

In the case of `COC(=O)C1=C(O)c2cnccc2N(Cc2ccc(C)c(F)c2)C(=O)C1` [Example 53, Methyl 1-(3-fluoro-4-methylbenzyl)-5-hydroxy-2-oxo-2,3-dihydro-1H-pyrido[4,3-b] azepine-4-carboxylate], the minimal effective concentration runs as follows: under setting [1], 1 to 10 µM; under setting [2], 1 to 10 µM; under setting [3], 1 to 10 µM.

For `COC(=O)C1=C(O)c2ccccc2N(Cc2ccccc2C)C(=O)C1` [Example 35, Methyl 5-hydroxy-1-(2-methylbenzyl)-2-oxo-2,3-dihydro-1H-benzo[b]azepine-4-carboxylate], the minimal effective concentration lay in the range of 30 to 1000 µM under setting [1], 30 to 1000 µM under setting [2] and 30 to 1000 µM under setting [3].

`COC(=O)C1=C(O)c2ccccc2N(Cc2cc(C)cc(C)c2)C(=O)C1` [Example 6, Methyl 1-(3,5-dimethylbenzyl)-5-hydroxy-2-oxo-2,3-dihydro-1H-benzo[b]azepine-4-carboxylate]: the minimal effective concentration under setting [1] fell in the range of 30 to 1000 µM, the minimal effective concentration under setting [2] lay in the range of 30 to 1000 µM and the minimal effective concentration under setting [3] lay in the range of 30 to 1000 µM.

Regarding `COC(=O)C1=C(O)c2ccccc2N(Cc2ccc(C)c(C)c2)C(=O)C1` [Example 36, Methyl 1-(3,4-dimethylbenzyl)-5-hydroxy-2-oxo-2,3-dihydro-1H-benzo[b]azepine-4-carboxylate], the minimal effective concentration reads like this: under setting [1], 10 to 30 µM; under setting [2], 10 to 30 µM; under setting [3], 10 to 30 µM.

For `COC(=O)C1=C(O)c2ccccc2N(Cc2ccc(C)cc2)C(=O)C1` [Example 7, Methyl 5-hydroxy-1-(4-methylbenzyl)-2-oxo-2,3-dihydro-1H-benzo[b]azepine-4-carboxylate], the minimal effective concentration lay within 0.001 to 1 µM under setting [1], 0.001 to 1 µM under setting [2] and 0.001 to 1 µM under setting [3].

Turning to `COC(=O)C1=C(O)c2ccccc2N(Cc2ccc(OC)c(OC)c2)C(=O)C1` [Example 51, Methyl 1-(3,4-dimethoxybenzyl)-5-hydroxy-2-oxo-2,3-dihydro-1H-benzo[b]azepine-4-carboxylate], the minimal effective concentration under setting [1] was in the range of 30 to 1000 µM, the minimal effective concentration under setting [2] fell in the range of 30 to 1000 µM and the minimal effective concentration under setting [3] is 30 to 1000 µM.

Turning to `Cc1ccc(CN2C(=O)CC(C(=O)C3CC3)=C(O)c3ccccc32)cc1F` [Example 58, 4-(cyclopropanecarbonyl)-1-(3-fluoro-4-methylbenzyl)-5-hydroxy-1,3-dihydro-2H-benzo[b]azepin-2-one], the minimal effective concentration lay in the range of 0.001 to 1 µM under setting [1], 0.001 to 1 µM under setting [2] and 0.001 to 1 µM under setting [3].

As to `CNC(=O)C1=C(O)c2ccccc2N(Cc2ccc(C)c(F)c2)C(=O)C1` [Example 63, 1-(3-fluoro-4-methylbenzyl)-5-hydroxy-N-methyl-2-oxo-2,3-dihydro-1H-benzo[b]azepine-4-carboxamide], the minimal effective concentration runs as follows: under setting [1], 1 to 10 µM; under setting [2], 1 to 10 µM; under setting [3], 1 to 10 µM.

On to `COC(=O)C1=C(O)c2ccccc2N(Cc2cccc(OC)c2)C(=O)C1` [Example 27, Methyl 5-hydroxy-1-(3-methoxybenzyl)-2-oxo-2,3-dihydro-1H-benzo[b]azepine-4-carboxylate], for which the minimal effective concentration under setting [1] was 10 to 30 µM and the minimal effective concentration under setting [3] is 10 to 30 µM.

In the case of `COC(=O)C1=C(O)c2ccccc2N(Cc2c(C)cccc2C)C(=O)C1` [Example 16, Methyl 1-(2,6-dimethylbenzyl)-5-hydroxy-2-oxo-2,3-dihydro-1H-benzo[b]azepine-4-carboxylate], under setting [2], the minimal effective concentration lay in the range of 30 to 1000 µM.

(Values after patent US20240270695A1, “COMPOUNDS, COMPOSITIONS AND METHODS OF TREATING DISORDERS” (Chengdu Anticancer Bioscience LTD, priority 2021, published 2024).)
